In brackets after ≈: the same amount, converted by molar mass. Where two headings read alike, the source gives them in different places. Bridge positions count the residues as written; N and C are the ends. Ends that are not written are not given here. Peptide text beside a SMILES is read from it.
How the values were obtained:
Type in all cases: cell-based
[1] = test system: Escherichia coli: ATCC 9723H
Procedure: (§1) Microtiter broth dilution assays. HP2, HP3, and HP5 peptides are comprised of novel sequences that have not yet been described in the AMP literature. A common method for establishing antimicrobial activity of peptides is to perform microtiter broth assays. Microtiter broth dilution methods were implemented for determination of the minimum inhibitory concentration (MIC) and minimum bactericidal concentration (MBC). HP3 and HP5 were tested in addition to Ranatuerin-1/HP4 peptide as a positive control. HP2 could not be tested because multiple peptide synthesis attempts failed. The human cathelicidin, LL-37^30 was used as an additional positive control, and an unrelated similarly sized cationic peptide from the T. pallidum protein Tp0751 was used as a negative control. The potential AMPs were tested against bacteria representative of all three types of known cell envelope (Gram-positive, negative, and the complex and unique mycobacterial cell wall/envelope), given that a major mechanism used by AMPs is cell wall/membrane targeting.
(§2) Microtiter broth dilution assays. To test for antimicrobial activity, HP3, HP4/Ranatuerin-1, and HP5, peptides were synthesized by GenScript (Piscataway, New Jersey, USA). HP2 was not tested because the service provider was unable to synthesize this peptide despite multiple attempts. An unrelated, similarly-sized peptide from the Treponema pallidum protein Tp0751^55 was used as a negative control and the human cathelicidin, LL-37^30, was included as a positive control. Peptides were dissolved in filter-sterilized ultrapure water and tested for sterility by plating on non-selective agar plates followed by a 48 h incubation at 37° C. Two-fold serial dilutions of each peptide were prepared to obtain a series corresponding to ten times the required testing concentrations (2560, 1280, 640, 320, 160, 80, 40, 20, 10, and 5 μg/mL)^29.
(§3) Microtiter broth dilution methods were implemented for determination of the minimum inhibitory concentration (MIC) and minimum bactericidal concentration (MBC) of the four putative AMPs and the negative control peptide using procedures adapted from the R.E.W. Hancock Laboratory for cationic AMPs^29 and the CLSI methods for dilution antimicrobial susceptibility tests^56.
(§4) To assess antimicrobial activity across a diverse range of bacterial species, colonies were cultured overnight on Mueller Hinton agar plates (MHA; +5% sheep blood for S. pyogenes)^56 from frozen glycerol stock. Bacteria tested include Gram-negative rods (Escherichia coli: ATCC 9723H; Pseudomonas aeruginosa: ATCC 10148), Gram-positive cocci (Staphylococcus aureus: ATCC 6538P; Streptococcus pyogenes: unknown strain, hospital isolate), and Mycobacterium smegmatis (MC^2155; classified as neither Gram-positive nor Gram-negative). Bacterial suspensions were prepared by placing 3-5 morphologically similar colonies from the grown plate into sterile glass culture tubes containing 2 mL of Mueller Hinton Broth (MHB; +5% lysed horse blood for S. pyogenes) 56. Microbial inoculums from bacterial suspensions were prepared through a spectrophotometric adjustment of turbidity to 0.08-0.1 at 600 nm to achieve a turbidity equivalent to that of a 0.5 McFarland standard (1-2×10^8 CFU/mL)^29. The standardized bacterial inoculums were then diluted in MHB to obtain final cell densities of approximately […].
(§5) Ninety-six-well microtiter plates (Fisher Cat. No. CS003790; Nepean, Ontario, Canada) were prepared with 100 μL of E. coli, P. aeruginosa, S. aureus, S. pyogenes, or M. smegmatis bacterial suspension (5×10^5 CFU/mL) dispensed into each well of columns 1 through 11. Eleven microliters of the 10×AMP dilution series for all four peptides were added to each well from column 1 (2560 μg/mL) to column 10 (5 μg/mL) in all plates. Column 11 functioned as a positive control for bacterial growth in the absence of AMPs. Column 12 in each plate contained 100 μL of MHB as a sterility control (+5% lysed horse blood for S. pyogenes)^56. […]

[2] = test system: Mycobacterium smegmatis (MC^2155); details: for MBC / MIC: Mycobacterium (MC^2155)
Procedure: as §1, §2, §3, §4, §5

[3] = test system: Pseudomonas aeruginosa: ATCC 10148
Procedure: as §1, §2, §3, §4, §5

[4] = test system: Staphylococcus aureus: ATCC 6538P
Procedure: as §1, §2, §3, §4, §5

[5] = test system: Streptococcus pyogenes: unknown strain, hospital isolate; details: for MBC / MIC: unknown strain, hospital isolate; for inhibitory or bacteriostatic activity: S. pyogenes
Procedure: as §1, §2, §3, §4, §5

Row | Compound | MBC ([1]; ATCC 9723) | MIC ([1]; ATCC 9723) | MBC [2] | MIC [2] | MBC ([3]; ATCC 10148) | MIC ([3]; ATCC 10148) | MBC ([4]; ATCC 6538) | MIC ([4]; ATCC 6538) | MBC [5] | MIC [5] | inhibitory or bacteriostatic activity ([1]; E. coli) | bacteriostatic and bacteriocidal activity ([2]; M. smegmatis) | inhibitory or bacteriostatic activity ([3]; P. aeruginosa) | inhibitory or bacteriostatic activity ([4]; S. aureus) | inhibitory or bacteriostatic activity [5] | MBC ([3]; P. aeruginosa) | MIC ([3]; P. aeruginosa) | MIC ([1]; E. coli, listed as H4) | MIC ([4]; S. aureus, listed as H4)
1 | FLTKPGMTFGKLLGK [Peptide P9_CCH] | >256 µg/mL | >256 µg/mL | >256 µg/mL | >256 µg/mL | >256 µg/mL | >256 µg/mL | >256 µg/mL | >256 µg/mL | >256 µg/mL | >256 µg/mL |  |  |  |  |  |  |  |  | 
2 | CC[C@H](C)[C@H](NC(=O)[C@H](CC(C)C)NC(=O)[C@H](CCCCN)NC(=O)[C@H](CCCCN)NC(=O)[C@H](CS)NC(=O)[C@H](CCCNC(=N)N)NC(=O)[C@H](CCC(=O)O)NC(=O)[C@@H](NC(=O)[C@@H]1CCCN1C(=O)[C@@H](NC(=O)[C@H](CCC(=O)O)NC(=O)[C@H](CO)NC(=O)[C@H](CS)NC(=O)[C@H](CCC(=O)O)NC(=O)[C@H](CCC(=O)O)NC(=O)[C@H](CCCCN)NC(=O)[C@@H](NC(=O)[C@H](CC(C)C)NC(=O)[C@H](CCC(=O)O)NC(=O)[C@H](CCC(=O)O)NC(=O)[C@H](CC(C)C)NC(=O)[C@H](C)NC(=O)[C@H](CCCNC(=N)N)NC(=O)[C@H](CC(C)C)NC(=O)[C@H](CC(N)=O)NC(=O)[C@H](CO)NC(=O)[C@@H]1CCCN1C(=O)[C@@H](N)CC(N)=O)C(C)C)[C@@H](C)CC)C(C)C)C(=O)N[C@@H](Cc1ccc(O)cc1)C(=O)NCC(=O)N[C@@H](Cc1ccc(O)cc1)C(=O)N[C@@H](CCCNC(=N)N)C(=O)N[C@@H](CCCCN)C(=O)O [HP5] (H-NPSNLRALEELVKEECSEIPVERCKKLIYGYRK-OH; N-terminus and C-terminus assumed) | >256 µg/mL | >256 µg/mL |  |  | >256 µg/mL | >256 µg/mL | >256 µg/mL | >256 µg/mL | >256 µg/mL | >256 µg/mL | no effect | weak bacteriostatic and bacteriocidal activity | no effect | no effect | no effect |  |  |  | 
3 | SNRDFFMVNIFGLCGPFGIMERKRR [Peptide P16_CCH] |  | >256 µg/mL |  | >256 µg/mL |  | >256 µg/mL |  | >256 µg/mL |  | >256 µg/mL |  |  |  |  |  |  |  |  | 
4 | CC[C@H](C)[C@H](NC(=O)[C@H](Cc1ccccc1)NC(=O)[C@@H]1CCCN1C(=O)[C@H](CC(C)C)NC(=O)[C@@H](N)Cc1ccccc1)C(=O)N[C@@H](C)C(=O)N[C@@H](CCCNC(=N)N)C(=O)N[C@@H](CC(C)C)C(=O)N[C@@H](C)C(=O)N[C@@H](C)C(=O)N[C@@H](CCCCN)C(=O)N[C@H](C(=O)N[C@@H](Cc1ccccc1)C(=O)N1CCC[C@H]1C(=O)N[C@@H](CO)C(=O)N[C@H](C(=O)N[C@H](C(=O)N[C@H]1CSSC[C@@H](C(=O)O)NC(=O)[C@H](CCCCN)NC(=O)[C@H](CCCCN)NC(=O)[C@H]([C@@H](C)O)NC(=O)[C@H](C(C)C)NC(=O)[C@H](CO)NC1=O)[C@@H](C)CC)[C@@H](C)CC)C(C)C [Peptide R4] (H-FLPFIARLAAKVFPSIICSVTKKC-OH; disulfide 18-24; N-terminus and C-terminus assumed) | 16 µg/mL (≈ 6.03 µM) | 16 µg/mL | 4 µg/mL (≈ 1.51 µM) | 4 µg/mL (≈ 1.51 µM) | >256 µg/mL | >256 µg/mL | 4 µg/mL (≈ 1.51 µM) | 4 µg/mL |  |  |  |  |  |  |  |  |  |  | 
5 | CC[C@H](C)[C@H](NC(=O)[C@H](CCCCN)NC(=O)[C@H](CCC(=O)O)NC(=O)[C@H](CCCCN)NC(=O)[C@H](CO)NC(=O)[C@H](CCCCN)NC(=O)[C@H](CCCNC(=N)N)NC(=O)[C@H](Cc1ccccc1)NC(=O)[C@H](Cc1ccccc1)NC(=O)[C@H](CC(=O)O)NC(=O)CNC(=O)[C@H](CC(C)C)NC(=O)[C@@H](N)CC(C)C)C(=O)NCC(=O)N[C@@H](CCCCN)C(=O)N[C@@H](CCC(=O)O)C(=O)N[C@@H](Cc1ccccc1)C(=O)N[C@@H](CCCCN)C(=O)N[C@@H](CCCNC(=N)N)C(=O)N[C@H](C(=O)N[C@H](C(=O)N[C@@H](CCC(N)=O)C(=O)N[C@@H](CCCNC(=N)N)C(=O)N[C@H](C(=O)N[C@@H](CCCCN)C(=O)N[C@@H](CC(=O)O)C(=O)N[C@@H](Cc1ccccc1)C(=O)N[C@@H](CC(C)C)C(=O)N[C@@H](CCCNC(=N)N)C(=O)N[C@@H](CC(N)=O)C(=O)N[C@@H](CC(C)C)C(=O)N[C@H](C(=O)N1CCC[C@H]1C(=O)N[C@@H](CCCNC(=N)N)C(=O)N[C@H](C(=O)N[C@@H](CCC(=O)O)C(=O)N[C@@H](CO)C(=O)O)[C@@H](C)O)C(C)C)[C@@H](C)CC)C(C)C)[C@@H](C)CC [LL37 + ve_AcOH, reference compound] |  |  |  |  |  |  |  |  |  |  |  |  |  |  |  | >256 µg/mL | >256 µg/mL |  | 
6 | CC[C@H](C)[C@H](NC(=O)[C@H](CCCCN)NC(=O)[C@H](CS)NC(=O)[C@H](C)NC(=O)[C@@H](NC(=O)[C@H](Cc1ccccc1)NC(=O)CNC(=O)[C@H](CC(C)C)NC(=O)CNC(=O)[C@@H](NC(=O)[C@H](CCCCN)NC(=O)CNC(=O)[C@H](CC(C)C)NC(=O)[C@H](CC(N)=O)NC(=O)[C@H](CCCCN)NC(=O)[C@H](CC(C)C)NC(=O)[C@@H](NC(=O)[C@H](CO)NC(=O)[C@H](CC(C)C)NC(=O)[C@H](CCSC)NC(=O)[C@@H](N)CO)C(C)C)C(C)C)C(C)C)C(=O)N[C@@H](CC(N)=O)C(=O)N[C@@H](CCCCN)C(=O)N[C@@H](CCC(N)=O)C(=O)N[C@@H](CS)C(=O)O [HP4] (H-SMLSVLKNLGKVGLGFVACKINKQC-OH; N-terminus and C-terminus assumed) |  | 48 µM |  |  | >256 µg/mL | >256 µg/mL |  | 97 µM | >256 µg/mL | >256 µg/mL |  |  | no effect |  | no effect |  |  | 128 µg/mL | 256 µg/mL
7 | CC(C)C[C@H](NC(=O)[C@H](CS)NC(=O)[C@@H]1CCCN1C(=O)[C@H](CCCCN)NC(=O)[C@H](CCCNC(=N)N)NC(=O)[C@@H]1CCCN1C(=O)[C@H](Cc1ccccc1)NC(=O)[C@H](CO)NC(=O)[C@H](CCCCN)NC(=O)[C@@H](NC(=O)[C@H](Cc1c[nH]c2ccccc12)NC(=O)[C@H](CS)NC(=O)CNC(=O)[C@H](CO)NC(=O)[C@H](CC(C)C)NC(=O)[C@@H](N)CO)[C@@H](C)O)C(=O)N[C@@H](CCCNC(=N)N)C(=O)N[C@@H](CC(N)=O)C(=O)N[C@@H](CCCNC(=N)N)C(=O)O [HP3, SLSGCWTKSFPRKPCLRNR] (H-SLSGCWTKSFPRKPCLRNR-OH; N-terminus and C-terminus assumed) | >256 µg/mL | >256 µg/mL |  |  | >256 µg/mL | >256 µg/mL | >256 µg/mL | >256 µg/mL | >256 µg/mL | >256 µg/mL | no effect |  | no effect | no effect | no effect |  |  |  | 

— patent publication US12280090B2, “Antimicrobial peptides” (priority 2018, dated 2025)
